System: anesthetized open-chest dogs
Assay: Hemodynamics of anesthetized open-chest dogs, intravenous infusion
Assay type: in vivo, mongrel dogs
Description: The animals were anesthetized by intravenous injection of 30 mg/kg sodium pentobarbital, tracheally intubated, and mechanically ventilated with positive air pressure. Left thoracotomy was performed through the fourth intercostal space and the heart was suspended in a pericardial cradle, the aortic root was isolated and a probe of blood flow meter (12 or 14 mm in diameter) was fixed to measure the aortic blood flow as a representation of cardiac output (CO), the circumflex branch of left coronary artery was isolated and a probe of blood flow meter (2 or 2.5 mm in diameter) was fixed to measure the coronary blood flow (CBF). A polyethylene catheter filled with heparin physiological saline was inserted through cardiac apex into the left ventricle to measure the left ventricular pressure (LVP) and left ventricular end-diastolic pressure (LVEDP), Peak positive and peak negative first derivatives of the LVP (+ LVdp/dt and − LVdp/dt) were calculated with the Acknowledge software. The systolic blood pressure (SBP), diastolic blood pressure (DBP) and mean arterial pressure (MAP) were measured by polyethylene catheter via the femoral artery, ECG □ was measured by a AC-601G ECG amplifier. The above-mentioned analog signal was input into a data acquisition workstation (MP100, BIOPAC Systems, USA) to a computer running Acknowledge (version 3.7.1).
After surgery, various indexes before administration were recorded until the indexes were stable, and then intravenous infusion administration was conducted. Thirty dogs were divided into five groups (six dogs in each group), the experiment groups were given 0.15, 0.3, 0.6 mg/kg of ASP-[…] respectively, the normal control group was given 1 ml/kg of solvent, and the positive control group was given 0.3 mg/kg of astragaloside IV. The delivery volumes were 15 ml for each dog was and the delivery velocity was 1 ml/min. The indexes were recorded at 5, 10, 15, 20, 30, 45, 60, 90 and 120 mins after drug administration. At the end of experiment, the hearts were excised and weighted. The myocardial blood flow for per hectogram (CF), coronary resistance (CR), cardiac index (CI), left ventricular work (LVW) and total peripheral resistance (TPR) were calculated according to the following formulae: CF=CBF×[…]/heart weight CR=MAP/CF CI=CO/0.11×(body weight)^2/3 LVW=CO×(MAP−5)×1.052×0.0136 TPR=MAP×79.92/CO
Data are expressed as mean±SD ( x±s), the paired t-test was used to compare the significance between before and after administration, the unpaired t-test was adopted for comparison between groups.

[1] = 0.3 mg/kg iv, 45 min after administration
[2] = 0.3 mg/kg iv, 60 min after administration
[3] = 0.3 mg/kg iv, 90 min after administration
[4] = 0.3 mg/kg iv, 120 min after administration
[5] = 0.3 mg/kg iv, before administration
[6] = 0.6 mg/kg iv, 5 min after administration
[7] = 0.6 mg/kg iv, 10 min after administration
[8] = 0.6 mg/kg iv, 15 min after administration

CC(C)(O)[C@@H]1CC[C@](C)([C@H]2[C@@H](O)C[C@@]3(C)C4C[C@H](OC5OC(CO)C(O)C(O)C5O)C5C(C)(C)[C@@H](O)CC[C@@]56C[C@@]46CC[C@]23C)O1 (stereo partly drawn) [CMG, Cycloastragenol-6-O-β-D-glucoside]
−dp/dt change vs before administration (0.3 mg/kg iv, 30 min after administration): (36 ± 97) mmHg/s
CF [1]: 51.7 ± 23.5 ml/min/100 g
CF change vs before administration [1]: (1.6 ± 6.8) ml/min/100 g
CI [1]: 1.85 ± 0.84 L/min/m^2
CI change vs before administration [1]: (−0.13 ± 0.13) L/min/m^2
CO [1]: 1.03 ± 0.39 L/min
CO change vs before administration [1]: (−0.07 ± 0.07) L/min
CR [1]: 1.65 ± 0.92 mmHg/ml/min/100 g
CR change vs before administration [1]: (0.11 ± 0.29) mmHg/ml/min/100 g
LVEDP [1]: 0.5 ± 2.3 mmHg
LVEDP change vs before administration [1]: (−1.28 ± 0.75) mmHg
LVP [1]: 98 ± 22 mmHg
LVP change vs before administration [1]: (−4.8 ± 5.5) mmHg
LVW [1]: 1.00 ± 0.48 kg · m
LVW change vs before administration [1]: (−0.02 ± 0.11) kg · m
TPR [1]: 6068 ± 2331 dyn · s/cm^5
TPR change vs before administration [1]: (768 ± 937) dyn · s/cm^5
dp/dt [1]: 1285 ± 453 mmHg/s
dp/dt change vs before administration [1]: (24 ± 83) mmHg/s
−dp/dt [1]: −878 ± 266 mmHg/s
−dp/dt change vs before administration [1]: (43 ± 117) mmHg/s
CF [2]: 51.7 ± 23.9 ml/min/100 g
CF change vs before administration [2]: (1.6 ± 6.8) ml/min/100 g
CI [2]: 1.80 ± 0.93 L/min/m^2
CI change vs before administration [2]: (−0.19 ± 0.42) L/min/m^2
CO [2]: 1.00 ± 0.45 L/min
CO change vs before administration [2]: (−0.10 ± 0.25) L/min
CR [2]: 1.54 ± 0.75 mmHg/ml/min/100 g
CR change vs before administration [2]: (0.01 ± 0.19) mmHg/ml/min/100 g
LVEDP [2]: 0.8 ± 2.8 mmHg
LVEDP change vs before administration [2]: (−0.98 ± 0.88) mmHg
LVP [2]: 98 ± 22 mmHg
LVP change vs before administration [2]: (−5.7 ± 6.0) mmHg
LVW [2]: 0.90 ± 0.43 kg · m
LVW change vs before administration [2]: (−0.12 ± 0.26) kg · m
TPR [2]: 6625 ± 4423 dyn · s/cm^5
TPR change vs before administration [2]: (1326 ± 3485) dyn · s/cm^5
dp/dt [2]: 1272 ± 479 mmHg/s
dp/dt change vs before administration [2]: (11 ± 94) mmHg/s
−dp/dt [2]: −833 ± 236 mmHg/s
−dp/dt change vs before administration [2]: (88 ± 199) mmHg/s
CF [3]: 51.1 ± 19.1 ml/min/100 g
CF change vs before administration [3]: (1.0 ± 4.7) ml/min/100 g
CI [3]: 1.74 ± 0.98 L/min/m^2
CI change vs before administration [3]: (−0.25 ± 0.42) L/min/m^2
CO [3]: 0.96 ± 0.47 L/min
CO change vs before administration [3]: (−0.14 ± 0.24) L/min
CR [3]: 1.51 ± 0.66 mmHg/ml/min/100 g
CR change vs before administration [3]: (−0.02 ± 0.16) mmHg/ml/min/100 g
LVEDP [3]: 0.9 ± 2.6 mmHg
LVEDP change vs before administration [3]: (−0.83 ± 0.72) mmHg
LVP [3]: 99 ± 20 mmHg
LVP change vs before administration [3]: (−4.5 ± 7.0) mmHg
LVW [3]: 0.90 ± 0.53 kg · m
LVW change vs before administration [3]: (−0.12 ± 0.32) kg · m
TPR [3]: 7000 ± 4452 dyn · s/cm^5
TPR change vs before administration [3]: (1701 ± 3472 dyn · s/cm^5
dp/dt [3]: 1242 ± 437 mmHg/s
dp/dt change vs before administration [3]: (−19 ± 39) mmHg/s
−dp/dt [3]: −909 ± 312 mmHg/s
−dp/dt change vs before administration [3]: (12 ± 172) mmHg/s
CF [4]: 50.7 ± 20.1 ml/min/100 g
CF change vs before administration [4]: (0.5 ± 2.0) ml/min/100 g
CI [4]: 1.81 ± 1.07 L/min/m^2
CI change vs before administration [4]: (−0.17 ± 0.52) L/min/m^2
CO [4]: 1.00 ± 0.52 L/min
CO change vs before administration [4]: (−0.10 ± 0.30) L/min
CR [4]: 1.60 ± 0.82 mmHg/ml/min/100 g
CR change vs before administration [4]: (0.07 ± 0.21) mmHg/ml/min/100 g
LVEDP [4]: 1.0 ± 2.1 mmHg
LVEDP change vs before administration [4]: (−0.71 ± 0.45) mmHg
LVP [4]: 100 ± 23 mmHg
LVP change vs before administration [4]: (−3.5 ± 10.3) mmHg
LVW [4]: 0.94 ± 0.54 kg · m
LVW change vs before administration [4]: (−0.08 ± 0.37) kg · m
TPR [4]: 7219 ± 5040 dyn · s/cm^5
TPR change vs before administration [4]: (1920 ± 3990) dyn · s/cm^5
dp/dt [4]: 1309 ± 433 mmHg/s
dp/dt change vs before administration [4]: (48 ± 92) mmHg/s
−dp/dt [4]: −894 ± 278 mmHg/s
−dp/dt change vs before administration [4]: (27 ± 63) mmHg/s
+LVdp/dtmax maximum increase (0.3 mg/kg iv, at 5-10 min after administration): 12.0±5.0%
CF [5]: 50.2 ± 19.5 ml/min/100 g
CI [5]: 1.98 ± 0.84 L/min/m^2
CO [5]: 1.10 ± 0.38 L/min
CR [5]: 1.53 ± 0.67 mmHg/ml/min/100 g
LVEDP [5]: 1.7 ± 2.2 mmHg
LVP [5]: 103 ± 20 mmHg
LVW [5]: 1.02 ± 0.47 kg · m
TPR [5]: 5299 ± 1597 dyn · s/cm^5
dp/dt [5]: 1261 ± 453 mmHg/s
−dp/dt [5]: −921 ± 311 mmHg/s
LVEDP maximum decrease (0.6 mg/kg iv): 2.1±0.5 mmHg
CF [6]: 51.7 ± 10.5 ml/min/100 g
CF change vs before administration [6]: (0.5 ± 3.1) ml/min/100 g
CI [6]: 2.00 ± 0.56 L/min/m^2
CI change vs before administration [6]: (0.04 ± 0.16) L/min/m^2
CO [6]: 1.18 ± 0.42 L/min
CO change vs before administration [6]: (0.03 ± 0.09) L/min
CR [6]: 1.44 ± 0.39 mmHg/ml/min/100 g
CR change vs before administration [6]: (0.02 ± 0.08) mmHg/ml/min/100 g
LVEDP [6]: 1.5 ± 1.6 mmHg
LVEDP change vs before administration [6]: (−1.17 ± 0.78) mmHg
LVP [6]: 105 ± 14 mmHg
LVP change vs before administration [6]: (−1.1 ± 3.5) mmHg
LVW [6]: 1.11 ± 0.38 kg · m
LVW change vs before administration [6]: (0.03 ± 0.11) kg · m
TPR [6]: 5474 ± 2219 dyn · s/cm^5
TPR change vs before administration [6]: (−32 ± 572) dyn · s/cm^5
dp/dt [6]: 1186 ± 316 mmHg/s
dp/dt change vs before administration [6]: (83 ± 55) mmHg/s
−dp/dt [6]: −850 ± 223 mmHg/s
−dp/dt change vs before administration [6]: (2 ± 31) mmHg/s
CF [7]: 51.2 ± 8.4 ml/min/100 g
CF change vs before administration [7]: (0.0 ± 2.2) ml/min/100 g
CI [7]: 2.01 ± 0.39 L/min/m^2
CI change vs before administration [7]: (0.05 ± 0.20) L/min/m^2
CO [7]: 1.17 ± 0.33 L/min
CO change vs before administration [7]: (0.02 ± 0.11) L/min
CR [7]: 1.44 ± 0.40 mmHg/ml/min/100 g
CR change vs before administration [7]: (0.03 ± 0.12) mmHg/ml/min/100 g
LVEDP [7]: 0.9 ± 1.6 mmHg
LVEDP change vs before administration [7]: (−1.74 ± 0.68) mmHg
LVP [7]: 105 ± 17 mmHg
LVP change vs before administration [7]: (−1.3 ± 5.0) mmHg
LVW [7]: 1.11 ± 0.34 kg · m
LVW change vs before administration [7]: (0.03 ± 0.15) kg · m
TPR [7]: 5261 ± 1874 dyn · s/cm^5
TPR change vs before administration [7]: (−246 ± 497) dyn · s/cm^5
dp/dt [7]: 1198 ± 278 mmHg/s
dp/dt change vs before administration [7]: (95 ± 70) mmHg/s
−dp/dt [7]: −857 ± 238 mmHg/s
−dp/dt change vs before administration [7]: (−4 ± 46) mmHg/s
CF [8]: 51.4 ± 8.3 ml/min/100 g
CF change vs before administration [8]: (0.2 ± 3.7) ml/min/100 g
CI [8]: 2.05 ± 0.50 L/min/m^2
CI change vs before administration [8]: (0.09 ± 0.16) L/min/m^2
CO [8]: 1.20 ± 0.38 L/min
CO change vs before administration [8]: (0.05 ± 0.09) L/min
CR [8]: 1.43 ± 0.35 mmHg/ml/min/100 g
CR change vs before administration [8]: (0.01 ± 0.07) mmHg/ml/min/100 g
LVEDP [8]: 1.3 ± 1.6 mmHg
LVEDP change vs before administration [8]: (−1.38 ± 0.51) mmHg
LVP [8]: 105 ± 17 mmHg
LVP change vs before administration [8]: (−0.8 ± 4.1) mmHg
LVW [8]: 1.14 ± 0.41 kg · m
